{"source": "ChEMBL document CHEMBL5131397", "about": "“Discovery and Optimization of Pyrazole Amides as Inhibitors of ELOVL1” (J Med Chem, 2021)", "key": {"HepG2": {"tested_on": "HepG2", "test": "Cytotoxicity against human HepG2 cells assessed as decrease in intracellular ATP levels incubated for 72 hrs by Cell Titer-Glo luminescence assay", "type": "functional", "details": "read-out: TC50 (the source's name)"}, "[1]": {"biological_target": "Voltage-gated inwardly rectifying potassium channel KCNH2 (Homo sapiens, UniProt Q12809)", "sequence (Q12809 whole entry)": "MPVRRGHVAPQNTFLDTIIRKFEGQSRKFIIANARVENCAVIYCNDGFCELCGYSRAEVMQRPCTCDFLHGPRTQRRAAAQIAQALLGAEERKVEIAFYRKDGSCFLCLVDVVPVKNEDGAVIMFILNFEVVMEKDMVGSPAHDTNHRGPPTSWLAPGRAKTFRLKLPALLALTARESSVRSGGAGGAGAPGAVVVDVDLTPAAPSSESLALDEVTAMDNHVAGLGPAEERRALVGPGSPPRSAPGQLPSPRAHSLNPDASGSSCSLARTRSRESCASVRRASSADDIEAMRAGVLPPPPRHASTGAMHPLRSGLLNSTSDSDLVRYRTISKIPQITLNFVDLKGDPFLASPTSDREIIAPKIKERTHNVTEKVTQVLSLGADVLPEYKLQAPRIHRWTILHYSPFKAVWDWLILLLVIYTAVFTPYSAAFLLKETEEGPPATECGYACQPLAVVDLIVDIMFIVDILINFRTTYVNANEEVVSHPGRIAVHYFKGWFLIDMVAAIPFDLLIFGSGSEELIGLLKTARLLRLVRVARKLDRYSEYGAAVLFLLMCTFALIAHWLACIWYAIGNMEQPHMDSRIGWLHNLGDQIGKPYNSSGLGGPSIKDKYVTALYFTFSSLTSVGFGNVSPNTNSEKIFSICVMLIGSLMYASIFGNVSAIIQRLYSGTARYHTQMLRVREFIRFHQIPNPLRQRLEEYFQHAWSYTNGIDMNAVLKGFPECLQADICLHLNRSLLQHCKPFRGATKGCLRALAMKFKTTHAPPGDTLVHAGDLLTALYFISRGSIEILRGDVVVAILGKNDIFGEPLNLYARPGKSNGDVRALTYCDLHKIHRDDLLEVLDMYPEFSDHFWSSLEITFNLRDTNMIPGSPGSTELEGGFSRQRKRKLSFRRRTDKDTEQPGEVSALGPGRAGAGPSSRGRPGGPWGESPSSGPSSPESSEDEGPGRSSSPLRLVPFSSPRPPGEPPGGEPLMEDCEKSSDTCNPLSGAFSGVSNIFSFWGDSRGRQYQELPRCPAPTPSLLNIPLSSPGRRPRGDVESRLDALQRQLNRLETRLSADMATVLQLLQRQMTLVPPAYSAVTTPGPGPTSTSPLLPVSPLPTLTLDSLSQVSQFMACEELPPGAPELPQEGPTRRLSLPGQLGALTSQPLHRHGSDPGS", "test": "Inhibition of human ERG by patch-clamp assay", "type": "toxicity"}, "[2]": {"biological_target": "T1, Very long chain fatty acid elongase 1 (Homo sapiens, UniProt Q9BW60)", "T1 sequence (Q9BW60 whole entry)": "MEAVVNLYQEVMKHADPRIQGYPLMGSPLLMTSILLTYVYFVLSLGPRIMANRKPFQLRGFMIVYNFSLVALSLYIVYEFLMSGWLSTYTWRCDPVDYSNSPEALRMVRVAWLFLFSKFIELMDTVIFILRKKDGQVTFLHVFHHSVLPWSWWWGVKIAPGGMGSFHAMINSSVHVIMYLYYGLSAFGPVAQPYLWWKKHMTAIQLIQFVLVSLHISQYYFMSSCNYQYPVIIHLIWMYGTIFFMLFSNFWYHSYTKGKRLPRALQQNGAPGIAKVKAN", "test": "Inhibition of ELOVL1 in human HEK2936E cells assessed as reduction of C26:0 LPC synthesis incubated for 48 hrs by cellular assay", "type": "cell-based"}, "[3]": {"test": "Intrinsic clearance in rat hepatocytes assessed per million cells", "type": "ADME, cell-based, Hepatocyte", "details": "read-out: CLH"}, "[4]": {"test": "Half life in Cynomolgus monkey at 1 mg/kg, iv upto 48 hrs by LC/MS/MS analysis", "type": "ADME, organism-based, Macaca fascicularis", "details": "in vivo"}, "[5]": {"test": "Volume of distribution at steady state in mouse at 1 mg/kg, iv upto 48 hrs by LC/MS/MS analysis", "type": "ADME, organism-based", "details": "in vivo, read-out: Vdss"}, "[6]": {"test": "Cmax in Cynomolgus monkey at 3 mg/kg, po upto 24 hrs by LC/MS/MS analysis", "type": "ADME, organism-based, Macaca fascicularis", "parameters": "time < 24 hrs, dose 3 mg/kg, route po", "details": "in vivo"}, "[7]": {"test": "Oral bioavailability in Cynomolgus monkey at 3 mg/kg upto 24 hrs by LC/MS/MS analysis", "type": "ADME, organism-based, Macaca fascicularis", "details": "in vivo"}, "[8]": {"test": "Plasma protein binding in human at 5 uM", "type": "ADME, cell-free", "details": "read-out: PPB (converted)"}, "[9]": {"biological_target": "T1, Very long chain fatty acid elongase 1", "test": "Inhibition of ELOVL1 in CALD patient-derived human fibroblast assessed as reduction of C26:0 VLCFA synthesis incubated for 48 hrs by cellular assay", "type": "cell-based"}, "[10]": {"biological_target": "T1, Very long chain fatty acid elongase 1", "test": "Inhibition of ELOVL1 in CALD patient-derived human lymphocyte assessed as reduction of C26:0 VLCFA synthesis incubated for 48 hrs by cellular assay", "type": "cell-based"}, "[11]": {"biological_target": "T1, Very long chain fatty acid elongase 1", "test": "Inhibition of ELOVL1 in Het […] 2 patient-derived human lymphocyte assessed as reduction of C26:0 VLCFA synthesis incubated for 48 hrs by cellular assay", "type": "cell-based"}, "[12]": {"biological_target": "T2, Very long chain fatty acid elongase 7 (Homo sapiens) (UniProt A1L3X0)", "T2 sequence (whole entry)": "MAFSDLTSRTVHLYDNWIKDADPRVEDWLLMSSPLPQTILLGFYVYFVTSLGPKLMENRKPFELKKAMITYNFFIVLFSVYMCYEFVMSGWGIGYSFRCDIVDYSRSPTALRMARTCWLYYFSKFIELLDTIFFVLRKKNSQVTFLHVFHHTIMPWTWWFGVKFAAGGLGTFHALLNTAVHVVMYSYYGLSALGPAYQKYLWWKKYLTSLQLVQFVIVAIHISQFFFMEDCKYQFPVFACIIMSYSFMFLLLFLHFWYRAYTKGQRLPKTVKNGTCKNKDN", "test": "Inhibition of ELOVL-7 in human HEK2936E cells assessed as increase in C20:0 lipo phosphatidyl choline synthesis at 100 nM in presence of 13C-labeled acetate measured after 48 hrs", "type": "cell-based"}, "Fibroblast": {"tested_on": "Fibroblast", "test": "Reduction in C26:0/C16:0 lysophosphatidyl choline levels in primary human CALD patient-derived fibroblast incubated for 48 hrs", "type": "functional, cell-based"}, "[13]": {"test": "Reduction of C26:0 /C16:0 LPC level in ABCD1 KO mouse blood at 5 mg/kg, po qd for 8 months by LC-MS/MS analysis relative to control", "type": "functional", "parameters": "scale not given: the % may be the effect or the level left", "details": "5840 h"}, "Mus musculus [14]": {"tested_on": "Mus musculus", "test": "Reduction in C26:0 LPC level in ABCD1 KO mouse blood administered orally qd for 105 days by LC-MS/MS analysis", "type": "functional, tissue-based", "details": "route po, time 105.0 day, DDE = dose-dependent effect"}, "Mus musculus [15]": {"tested_on": "Mus musculus", "test": "Reduction in C26:0/C16:0 LPC level in high fat diet fed ABCD1 knock out mouse blood at 1 to 8 mg/kg, po qd after 7 days of dosing measured on day 14 by LC-MS/MS analysis", "type": "functional, organism-based", "details": "dose 1-8 mg/kg, time 14.0 day"}, "Mus musculus [16]": {"tested_on": "Mus musculus", "test": "Reduction in C26:0/C16:0 LPC level in high fat diet fed ABCD1 knock out mouse blood at 1 to 8 mg/kg, po qd measured on day 28 after 7 days of treatment discontinuation by LC-MS/MS analysis", "type": "functional, organism-based", "details": "dose 1-8 mg/kg, time 28.0 day"}, "Mus musculus [17]": {"tested_on": "Mus musculus", "test": "Reduction in C26:0/C16:0 LPC level in ABCD1 knock out mouse CNS at 1 to 10 mg/kg, po qd measured after 2 months of dosing by LC-MS/MS analysis", "type": "functional, organism-based", "details": "dose 1-10 mg/kg"}, "[18]": {"test": "Reduction in C26:0/C16:0 LPC level in ABCD1 knock out mouse CNS at 1 mg/kg, po qd measured after 3 months of dosing by LC-MS/MS analysis", "type": "functional", "parameters": "scale not given: the % may be the effect or the level left", "details": "2190 h"}, "[19]": {"test": "Reduction in C26:0/C16:0 LPC level in ABCD1 knock out mouse CNS at 16 mg/kg, po qd measured after 6 months of dosing by LC-MS/SMS analysis", "type": "functional", "parameters": "scale not given: the % may be the effect or the level left", "details": "4380 h"}, "[20]": {"test": "Reduction in C26:0 LPC level in ABCD1 knock out mouse CNS at 4 mg/kg, po qd measured after 6 months of dosing by LC-MS/MS analysis", "type": "functional", "parameters": "scale not given: the % may be the effect or the level left", "details": "4380 h"}, "[21]": {"test": "Increase in C20:0/C16:0 total VLCFA levels in ABCD1 knock out mouse CNS at 1 to 10 mg/kg, po qd measured after 3 months of dosing by LC-MS/MS analysis", "type": "functional", "details": "dose 1-10 mg/kg, 2190 h"}, "[22]": {"test": "Toxicity in Sprague-Dawley rat assessed as decrease in body weight at 5 to 50 mg/kg/day, po administered for 8 weeks", "type": "organism-based", "details": "in vivo, 1344 h, dose 5-50 mg/kg/day"}, "[23]": {"test": "Toxicity in Sprague-Dawley rat assessed as adverse effects at 5 to 50 mg/kg/day, po administered for 8 weeks and measured after cessation dosing by long-term safety study", "type": "organism-based", "details": "in vivo, 1344 h, dose 5-50 mg/kg/day"}, "[24]": {"test": "Toxicity in Sprague-Dawley rat assessed as ocular focal cellular disorganization at 5 mg/kg/day, po administered for 8 weeks by microscopic observation analysis", "type": "organism-based", "details": "in vivo, 1344 h"}, "[25]": {"test": "Toxicity in Sprague-Dawley rat assessed as corneal abnormalities at 5 mg/kg/day, po administered for 8 weeks measured after cessation of dosing", "type": "organism-based", "details": "in vivo, 1344 h"}, "[26]": {"test": "Toxicity in Cynomolgus monkey assessed as dry and red scaly areas on face at 5 to 50 mg/kg/day, po administered for 14 days by macroscopic observation analysis", "type": "organism-based, Macaca fascicularis", "details": "in vivo, 336 h, dose 5-50 mg/kg/day, time 14 day"}}, "note": "Active and inactive are the calls of the source. The calls are words filed in the database; no cut-off is given here.", "data": [{"smiles": "O=C(Nc1ccn(-c2ccnc(F)c2)n1)C1(c2ccccc2F)CC1", "values": [{"measurement": "CC50", "setting": "HepG2", "value": "> 100000", "unit": "nM"}, {"measurement": "IC50", "setting": "[1]", "value": "> 30000", "unit": "nM"}, {"measurement": "IC50", "setting": "[2]", "value": 13, "unit": "nM"}, {"measurement": "hepatocyte CLint", "setting": "[3]", "value": 14, "unit": "µL/min/1e6 cells"}, {"measurement": "half-life", "setting": "[4]", "value": 5.4, "unit": "h"}, {"measurement": "Vd", "setting": "[5]", "value": 2.6, "unit": "L/kg"}, {"measurement": "Cmax", "setting": "[6]", "value": 404, "unit": "ng/mL"}, {"measurement": "bioavailability", "setting": "[7]", "value": 100, "unit": "%"}, {"measurement": "fraction unbound at 5 µM", "setting": "[8]", "value": 0.062}, {"measurement": "IC50", "setting": "[9]", "value": 20, "unit": "nM"}, {"measurement": "IC50", "setting": "[10]", "value": 15, "unit": "nM"}, {"measurement": "IC50", "setting": "[11]", "value": 9, "unit": "nM"}, {"measurement": "inhibition", "setting": "[12]", "value": "Active"}, {"measurement": "Activity", "setting": "Fibroblast", "value": "Active"}, {"measurement": "Activity", "setting": "[13]", "value": 60, "unit": "%"}, {"measurement": "Activity", "setting": "Mus musculus [14]", "value": "Dde"}, {"measurement": "Activity", "setting": "Mus musculus [15]", "value": "Active"}, {"measurement": "Activity", "setting": "Mus musculus [16]", "value": "Active"}, {"measurement": "Activity", "setting": "Mus musculus [17]", "value": "Active"}, {"measurement": "Activity", "setting": "[18]", "value": 25, "unit": "%"}, {"measurement": "Activity", "setting": "[19]", "value": 55, "unit": "%"}, {"measurement": "Activity", "setting": "[20]", "value": 57, "unit": "%"}, {"measurement": "Activity", "setting": "[21]", "value": "<6", "unit": "%"}, {"measurement": "Activity", "setting": "[22]", "value": "Toxic"}, {"measurement": "Activity", "setting": "[23]", "value": "Non-Toxic"}, {"measurement": "Activity", "setting": "[24]", "value": "Toxic"}, {"measurement": "Activity", "setting": "[25]", "value": "Toxic"}, {"measurement": "Activity", "setting": "[26]", "value": "Toxic"}]}]}
